Values of other authors in patent publication US7659264B2, “CGRP receptor antagonists” (Merck Sharp & Dohme Corp., priority 2004, dated 2010).
Where no end group is shown, it is not given here.

Tests used:
facial blood flow [1] = conditions: marmoset, electrical stimulation of the trigeminal ganglion
migraine = conditions: clinical studies, intravenously administered
[2] = system: diameter of the middle meningeal artery; conditions: rats, electrical stimulation of the dura mater, prior administration
facial blood flow [3] = conditions: rat, trigeminal ganglion stimulation

| Molecule | effect on increase in facial blood flow (facial blood flow [1]) | acute treatment for migraine (migraine) | effect on increased diameter of the middle meningeal artery [2] | effect on increased facial blood flow (facial blood flow [3]) |
| --- | --- | --- | --- | --- |
| NCCCC[C@H](NC(=O)[C@@H](Cc1cc(Br)c(O)c(Br)c1)NC(=O)N1CCC(N2Cc3ccccc3NC2=O)CC1)C(=O)N1CCN(c2ccncc2)CC1 [BIBN4096BS] | could be blocked | safe and effective acute treatment for migraine | – | – |
| CGRP(8-37): a peptide CGRP antagonist; fragment of CGRP that lacks seven N-terminal amino acid residues (VTHRLAGLLSRSGGVVKNNFVPTNVGSKAF; ends and bridges not checked; UniProt P06881 90-119, looked up, fragment) | – | – | blocked | inhibited |
